Reference: PubChem BioAssay (NCI)
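Briefly, cells in 96-well plates were exposed to five compound concentrations for 48 h, and endpoints were estimated by linear interpolation. GI50 = concentration required for 50% inhibition of growth. TGI is the concentration that stops growth completely.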

Experiments:
Assay in all cases: NCI tumour cell line growth inhibition, 48 h
DU-145 prostate = system: DU-145 prostate
MDA-MB-231 breast = system: MDA-MB-231 breast
MDA-MB-435 = system: MDA-MB-435
MDA-N = system: MDA-N
NCI/ADR-RES ovarian = system: NCI/ADR-RES ovarian
RPMI-8226 leukemia = system: RPMI-8226 leukemia
T-47D breast = system: T-47D breast
DMS 114 small cell lung = system: DMS 114 small cell lung
LXFL 529 NSCLC = system: LXFL 529 NSCLC
SNB-78 CNS = system: SNB-78 CNS
TK-10 renal = system: TK-10 renal
BT-549 breast = system: BT-549 breast

SMILES	TGI (DU-145 prostate) [µM]	TGI (MDA-MB-231 breast) [µM]	TGI (MDA-MB-435) [µM]	TGI (MDA-N) [µM]	TGI (NCI/ADR-RES ovarian) [µM]	TGI (RPMI-8226 leukemia) [µM]	TGI (T-47D breast) [µM]	TGI (DMS 114 small cell lung) [µM]	TGI (LXFL 529 NSCLC) [µM]	TGI (SNB-78 CNS) [µM]	TGI (TK-10 renal) [µM]	TGI (BT-549 breast) [µM]	further results
C=CCn1c(=O)c(Br)nn(CCOCP(=O)(OCC)OCC)c1=O	> 100	> 100	> 100	> 100	> 100	> 100	> 100	–	–	–	–	–	–
Nc1nc(SCCNC(=O)CCc2ccc(O)c(I)c2)nc2c1ncn2C1OC(CO)C(O)C1O (stereo unspecified)	–	–	–	–	–	–	–	> 100	> 100	> 100	> 100	–	–
CC(=O)OCC1=CC2OC(=O)C3=COC(OC4OC(CO)C(O)C(O)C4O)C1C32 (stereo unspecified)	> 100	> 100	> 100	> 100	> 100	> 100	> 100	–	–	–	> 100	> 100	–
N#Cc1ccc([N+](=O)[O-])cc1NC(N)=S	–	–	–	–	–	> 100	–	–	32.6	> 100	–	–	–
CC[C@@]1(O)C[C@H](OC2CC(N(C)C)C(OC3CC(O)C(OC4CCC(=O)C(C)O4)C(C)O3)C(C)O2)c2c(cc3c(c2O)C(=O)c2c(O)cccc2C3=O)C1C(=O)OC (stereo partly specified)	0.446	0.058	–	0.149	0.673	–	–	0.474	1.68	–	–	–	–
CC(C)CNCCc1ccccn1	> 100	> 100	> 100	> 100	> 100	–	–	–	–	–	> 100	> 100	–
O=c1oc2cc(O)ccc2c2oc3cc(O)ccc3c12	–	–	–	–	> 125	> 125	–	> 12.5	–	> 86.3	–	–	–
CC1=C(SCCO)C(=O)c2ccccc2C1=O	29.6	27.4	23.9	15.6	31.9	–	20.5	–	–	–	30.4	31.7	–
CC(C)C1=CC2=CC[C@@H]3[C@](C)(CCC[C@@]3(C)C(=O)O)[C@H]2CC1	–	–	–	–	–	> 79.7	–	> 100	> 100	> 96.2	> 100	–	–
COc1cc2c3c(n(CCCn4cncn4)c(=O)c2cc1OC)-c1cc2c(cc1C3=O)OCO2	> 34.7	> 100	> 100	–	> 100	12.3	> 100	–	–	–	> 88.1	> 100	GI50 (BT-549 breast): 31.1 µM; GI50 (DU-145 prostate): < 0.0293 µM; GI50 (MDA-MB-231 breast): 80.9 µM; GI50 (MDA-MB-435): > 100 µM; GI50 (NCI/ADR-RES ovarian): 1.55 µM; GI50 (RPMI-8226 leukemia): < 0.0194 µM; GI50 (TK-10 renal): 35.2 µM
C1=CC=C2NCCc3cccc(c3)CCNC3=CC=CC=CC3=NCCCCCCN=C2C=C1	–	–	–	–	–	31.1	–	26.1	23.6	> 100	–	–	–
CCCCC(=O)c1c(O)ccc2c(C)cc(=O)oc12	> 100	> 100	> 100	> 100	> 100	> 100	51.4	–	–	–	> 100	> 100	–
CC(=O)OCCCCN1C(=O)CSc2ccccc21	> 100	–	> 100	> 100	–	> 100	> 100	–	–	–	> 100	> 100	–
O=C1CCCCN1	–	–	–	–	> 707	> 1120	–	> 1120	–	> 1120	–	–	–
O=Cc1ccccc1CCn1c(=O)c2cc3c(=O)n(CCc4ccccc4C=O)c(=O)c3cc2c1=O	–	–	–	–	–	–	–	> 100	> 100	> 100	> 100	–	–
